Consider twelve molecules from ChEMBL document CHEMBL2385049, “The effects and mechanism of flavonoid-rePON1 interactions. Structure-activity relationship study” (Bioorg Med Chem, 2013).

The target in experiment [1] is Serum paraoxonase/arylesterase 1 (Homo sapiens) (UniProt P27169). In words: Binding affinity to recombinant paraoxonase-1 (unknown origin) expressed in Escherichia coli after 5 mins by Trp-fluorescence quenching method.
The target is the same in experiment [2]. Kind of experiment: Binding affinity to recombinant paraoxonase-1 (unknown origin) expressed in Escherichia coli.
Experiment [3] has the same target. Kind of experiment: Activation of recombinant paraoxonase-1 (unknown origin) expressed in Escherichia coli assessed as delaying of Cu2+-induced LDL oxidation time after 15 mins by UV ELISA. A general note: In an ELISA, binding on a coated surface is turned into a signal by an enzyme label.

The source made the active and inactive calls. The rule behind the calls is not given here.

Chain of Serum paraoxonase/arylesterase 1 (Homo sapiens) (P27169 whole entry): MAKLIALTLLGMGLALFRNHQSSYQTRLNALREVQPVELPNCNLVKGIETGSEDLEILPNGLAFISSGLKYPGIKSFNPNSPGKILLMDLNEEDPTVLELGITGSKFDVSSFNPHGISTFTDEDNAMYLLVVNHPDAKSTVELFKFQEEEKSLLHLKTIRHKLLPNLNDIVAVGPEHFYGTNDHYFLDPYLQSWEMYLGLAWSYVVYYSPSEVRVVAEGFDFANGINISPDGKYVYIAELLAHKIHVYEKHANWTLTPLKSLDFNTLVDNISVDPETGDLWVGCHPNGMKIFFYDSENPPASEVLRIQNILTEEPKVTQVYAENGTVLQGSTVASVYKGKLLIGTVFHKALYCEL

Regarding `O=c1c(-c2ccc(O)cc2)coc2cc(O)cc(O)c12`, the KSV in experiment [1] was 0.64 ×10⁵ /M. Also, the Ka in experiment [2] turned out to be 0.86 ×10⁵ /M.
The matching figures for `O=c1c(-c2ccc(O)cc2)coc2cc(O)ccc12`: 0.58 ×10⁵ /M and 1.13 ×10⁵ /M.
The matching figures for `O=c1cc(-c2ccc(O)cc2O)oc2ccccc12`: 0.54 ×10⁵ /M and 0.75 ×10⁵ /M.
In the case of `CC1(C)C=Cc2c(ccc3c2OC[C@@H](c2ccc(O)cc2O)C3)O1`, the KSV in experiment [1] stood at 1.93 ×10⁵ /M. The Ka in experiment [2] was 2.4 ×10⁵ /M. The TIME in experiment [3] came to 1.33 h.
In the case of `O=c1c(O)c(-c2ccc(O)c(O)c2)oc2cc(O)cc(O)c12`, in experiment [1], the KSV amounted to 1.25 ×10⁵ /M. Moreover, the Ka in experiment [2] was determined as 1.28 ×10⁵ /M. Also, the result in experiment [3] was Active.
Turning to `O=c1cc(-c2ccc(O)cc2)oc2cc(O)cc(O)c12`, the KSV in experiment [1] came to 1.15 ×10⁵ /M. In addition, the Ka in experiment [2] worked out at 1.13 ×10⁵ /M.
The matching figures for `O=C1C[C@@H](c2ccc(O)cc2)Oc2cc(O)cc(O)c21`: 0.35 ×10⁵ /M and 0.68 ×10⁵ /M.
In the same order, the values of `O=c1cc(-c2ccc(O)c(O)c2)oc2cc(O)ccc12` are 0.87 ×10⁵ /M and 1.07 ×10⁵ /M.
In the same order, the values of `O=c1c(O)c(-c2ccc(O)cc2)oc2cc(O)cc(O)c12` are 1.22 ×10⁵ /M and 1.43 ×10⁵ /M.
`Oc1cc(O)c2c(c1)OC(c1ccc(O)c(O)c1)C(O)C2` (stereo not given): the result in experiment [3] was inactive.
As for `COc1ccc([C@@H]2CC(=O)c3c(O)cc(O)cc3O2)cc1O`, the KSV in experiment [1] came to 0.6 ×10⁵ /M. For the same molecule, in experiment [2], the Ka turned out to be 0.66 ×10⁵ /M.
The matching figures for `O=c1cc(-c2ccc(O)c(O)c2)oc2cc(O)cc(O)c12`: 1.34 ×10⁵ /M and 1.33 ×10⁵ /M.
